#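 Interpolation was linear, between the two tested concentrations surrounding the appropriate level; five concentrations were tested over 48 hours in 96-well plates. Here, GI50 denotes the concentration required for 50% inhibition of growth.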 Activity calls are given as the source filed them. Rule as the data show it: active = GI50 up to about 1.1 µM and inactive = higher. Starred links: 1 amine or outer side, 2 acyl side, 3 side chain; linkers in the order of their positions; H or OH if unused. Positions of bridges follow the written chain, without caps; N, C: chain ends. Non-standard residues stand in square brackets, D forms with d. Residues, ends and D or L forms follow the SMILES beside them. Chains are numbered I, II in the order given. Actinocin(9to1) = Cc1c2oc3c(C)ccc(C(=O)[*:1])c3nc-2c(C(=O)[*:2])c(N)c1=O; NMeV = CN[CH](C(=O)O)C(C)C; Sar = CNCC(=O)O
# Columns and labels:
# Test in all cases: NCI-60 cell line screen, 48 h
# [1] = system: U-251
# [2] = system: OVCAR-3
# [3] = system: UACC-62
# [4] = system: LOX IMVI
# [5] = system: HOP-62
# [6] = system: HCC 2998
# [7] = system: KM12
# [8] = system: OVCAR-5
# [9] = system: SNB-19
# [10] = system: Hs-578T
# [11] = system: A549
# [12] = system: SK-MEL-5
# [13] = system: PC-3
# [14] = system: CCRF-CEM
# [15] = system: SK-MEL-2
# [16] = system: K562
# [17] = system: HCT-15
# [18] = system: SF-295
# [19] = system: OVCAR-4
# [20] = system: M14
Compound,GI50 [1],GI50 [2],GI50 [3],GI50 [4],GI50 [5],GI50 [6],GI50 [7],GI50 [8],GI50 [9],GI50 [10],GI50 [11],GI50 [12],GI50 [13],GI50 [14],GI50 [15],GI50 [16],GI50 [17],GI50 [18],GI50 [19],GI50 [20]
CN1CCN(c2ccc3c(c2)NCC(=O)N3)CC1,> 100 µM (inactive),> 100 µM (inactive),> 100 µM (inactive),> 100 µM (inactive),> 100 µM (inactive),> 100 µM (inactive),> 100 µM (inactive),> 100 µM (inactive),> 100 µM (inactive),> 100 µM (inactive),> 100 µM (inactive),> 100 µM (inactive),> 100 µM (inactive),> 100 µM (inactive),> 100 µM (inactive),> 100 µM (inactive),> 100 µM,> 100 µM (inactive),> 100 µM (inactive),> 100 µM (inactive)
Cc1cc(C)n(C(=O)C(C)Sc2nnc(SC(C)C(=O)n3nc(C)cc3C)s2)n1 (stereo unspecified),> 100 µM (inactive),> 100 µM (inactive),> 100 µM (inactive),> 100 µM (inactive),> 100 µM (inactive),> 100 µM (inactive),> 100 µM (inactive),> 100 µM (inactive),> 100 µM (inactive),> 100 µM (inactive),> 100 µM (inactive),> 100 µM (inactive),> 100 µM (inactive),> 100 µM (inactive),> 100 µM (inactive),> 100 µM (inactive),> 100 µM,> 100 µM (inactive),> 100 µM (inactive),> 100 µM (inactive)
CC(=O)c1ccc(NCN2C(=O)c3ccccc3C2=O)cc1,> 100 µM (inactive),> 100 µM (inactive),> 100 µM (inactive),> 100 µM (inactive),> 100 µM (inactive),> 100 µM (inactive),> 100 µM (inactive),> 100 µM (inactive),> 100 µM (inactive),> 100 µM (inactive),> 100 µM (inactive),> 100 µM (inactive),> 100 µM (inactive),> 100 µM (inactive),> 100 µM (inactive),> 100 µM (inactive),> 100 µM,> 100 µM (inactive),> 100 µM (inactive),> 100 µM (inactive)
CCc1nc2cc3cccnc3c(Cl)c2[nH]c1=O,61.5 µM (inactive),> 100 µM (inactive),> 100 µM (inactive),> 100 µM (inactive),> 100 µM (inactive),> 100 µM (inactive),> 100 µM (inactive),> 100 µM (inactive),58.3 µM (inactive),> 100 µM (inactive),> 100 µM (inactive),> 100 µM (inactive),> 100 µM (inactive),> 100 µM (inactive),> 100 µM (inactive),> 100 µM (inactive),> 100 µM,> 100 µM (inactive),> 100 µM (inactive),> 100 µM (inactive)
Nc1ccccc1NC(=O)c1ccc(CNC(=O)OCc2cccnc2)cc1 [ENTINOSTAT],1.54 µM (inactive),1.51 µM (inactive),0.622 µM (active),0.859 µM (active),2 µM (inactive),1.41 µM (inactive),> 23.4 µM (inactive),0.125 µM (active),2.65 µM (inactive),3.31 µM (inactive),3 µM (inactive),0.624 µM (active),2.88 µM (inactive),0.757 µM (active),0.424 µM (active),0.627 µM (active),3.56 µM,2.02 µM (inactive),,1.04 µM (active)
"Cc1c2oc3c(C)ccc(C(=O)NC4C(=O)NC(Cc5ccc(O)cc5)C(=O)N5CCCC5C(=O)N(C)CC(=O)N(C)C(C(C)C)C(=O)OC4C)c3nc-2c(C(=O)NC2C(=O)NC(Cc3ccc(O)cc3)C(=O)N3CCCC3C(=O)N(C)CC(=O)N(C)C(C(C)C)C(=O)OC2C)c(N)c1=O (stereo unspecified) (I: TYP[Sar][NMeV] / II: TYP[Sar][NMeV]; ester I:1-I:C, II:1-II:C; linker I:N-II:N via Actinocin(9to1); configuration not given here)",0.374 µM (active),1.63 µM (inactive),1.14 µM (inactive),0.0859 µM (active),2.33 µM (inactive),> 40.2 µM (inactive),0.577 µM (active),7.66 µM (inactive),0.449 µM (active),16.6 µM (inactive),0.635 µM (active),0.163 µM (active),4.11 µM (inactive),,,0.354 µM (active),8.65 µM,0.42 µM (active),1.14 µM (inactive),2.55 µM (inactive)
Cn1c(CO)ccc1-c1ccc(-c2ccc(CO)[se]2)[se]1,0.528 µM (active),2.01 µM (inactive),6.95 µM (inactive),16.2 µM (inactive),7.28 µM (inactive),0.705 µM (active),21.4 µM (inactive),,> 63.4 µM (inactive),> 100 µM (inactive),15.4 µM (inactive),2.28 µM (inactive),18.2 µM (inactive),1.8 µM (inactive),7.59 µM (inactive),1.35 µM (inactive),9.82 µM,> 76.4 µM (inactive),0.578 µM (active),10.4 µM (inactive)

# Reference: ChEMBL document CHEMBL1201862, “PubChem BioAssay data set” (2004)
